Data published in ChEMBL document CHEMBL1144128, “A new bisabolene epoxide from Tussilago farfara, and inhibition of nitric oxide synthesis in LPS-activated macrophages” (J Nat Prod, 1999).

What was measured:
[1] = tested on: RAW264.7; assay: Inhibition of LPS-induced nitric oxide synthesis in mouse RAW264.7 macrophages at 0.1 uM after 18 hrs of LPS challenge measured after 18 hrs by ELISA relative to LPS-treated control; assay type: functional; details: RAW264.7, 18 h
[2] = tested on: RAW264.7; assay: Inhibition of LPS-induced nitric oxide synthesis in mouse RAW264.7 macrophages at 0.1 uM pretreated 18 hrs before arginine challenge assessed after 18 hrs by ELISA relative to LPS-treated control; assay type: functional
[3] = tested on: RAW264.7; assay: Inhibition of LPS-induced nitric oxide synthesis in mouse RAW264.7 macrophages at 0.1 uM after 18 hrs by ELISA relative to LPS-treated control; assay type: functional; details: RAW264.7, 18 h
[4] = tested on: RAW264.7; assay: Inhibition of LPS-induced nitric oxide synthesis in mouse RAW264.7 macrophages after 18 hrs of LPS challenge measured after 18 hrs by ELISA relative to LPS-treated control; assay type: functional
[5] = tested on: RAW264.7; assay: Inhibition of LPS-induced nitric oxide synthesis in mouse RAW264.7 macrophages at 30 uM pretreated 18 hrs before arginine challenge assessed after 18 hrs by ELISA relative to LPS-treated control; assay type: functional
[6] = tested on: RAW264.7; assay: Inhibition of LPS-induced nitric oxide synthesis in mouse RAW264.7 macrophages at 30 uM after 18 hrs by ELISA relative to LPS-treated control; assay type: functional; details: RAW264.7, 18 h
[7] = tested on: RAW264.7; assay: Inhibition of LPS-induced nitric oxide synthesis in mouse RAW264.7 macrophages after 18 hrs by ELISA; assay type: functional, cell-based
[8] = tested on: RAW264.7; assay: Inhibition of LPS-induced nitric oxide synthesis in mouse RAW264.7 macrophages at 30 uM after 18 hrs of LPS challenge measured after 18 hrs by ELISA relative to LPS-treated control; assay type: functional; details: RAW264.7, 18 h

CNC(=N)NCCC[C@H](N)C(=O)O [TILARGININE] gave an inhibition at 0.1 µM [1] of 53.3%, an inhibition at 0.1 µM [2] of 25.8% and an inhibition at 0.1 µM [3] of 60.5%.

N=C(N)NN [PIMAGEDINE] was tested, and the “inhibition (INH)” value [4] was 78.8%.

C=C(C(CC=C(C)C)OC(=O)/C(C)=C\C)C1[C@H](OC(C)=O)C(=O)[C@@]2(C)O[C@H]2[C@@H]1OC(C)=O (some centres undefined) was tested, and the inhibition at 30 µM [5] was 68.9%, the inhibition at 30 µM [6] was 71.1% and the Activity [7] was “Dose-dependent effect”. It also gave an IC50 ([7]; RAW264.7, 18 h) of 8.9 µM and an inhibition at 30 µM [8] of 11.1%.
